# B1: hrIL-6sR: commercially available recombinant human IL-6sR (interleukin-6 soluble receptor) purchased from R&D Systems (protein, UniProt P08887 20-365, looked up)
# extracellular domain: LAPRRCPAQEVARGVLTSLPGDSVTLTCPGVEPEDNATVHWVLRKPAAGSHPSRWAGMGRRLLLRSVQLHDSGNYSCYRAGRPAGTVHLLVDVPPEEPQLSCFRKSPLSNVVCEWGPRSTPSLTTKAVLLVRKFQNSPAEDFQEPCQYSQESQKFSCQLAVPEGDSSFYIVSMCVASSVGSKFSKTQTFQGCGILQPDPPANITVTAVARNPRWLSVTWQDPHSWNSSFYRLRFELRYRAERSKTFTTWMVKDLQHHCVIHDAWSGLRHVVQLRAQEEFGQGEWSEWSPEAMGTPWTESRSPPAENEVSTPMQALTTNKDDDNILFRDSANATSLPVQDSSSVPLP
# modifications: extracellular domain
# notes: commercially available recombinant human IL-6sR (interleukin-6 soluble receptor) purchased from R&D Systems
# How the values were obtained:
# Assay type in all cases: in vivo
# [1] = tested on: (IL-6 plus IL-6sR)-induced arthritic pain in rat; assay: IL6 Rat: time course of alleviation of (IL-6 plus IL-6sR)-induced arthritic pain (Method Example 2); conditions: 10 mg/kg oral 1 hour before 100 ng hrIL-6 + 300 ng hrIL-6sR; Time 1 and 3 hours post injection
# Description: (§1) Animals were fed standard rat chow with water available ad libitum.
# (§2) Each data point is the mean of three readings of 5 seconds duration.
# [2] = tested on: (IL-6 plus IL-6sR)-induced arthritic pain in rat; assay: IL6 Rat: dose response alleviation of (IL-6 plus IL-6sR)-induced arthritic pain (Method Example 1); conditions: oral dose of 10 mg/kg or greater (1, 3, 10, 30 mg/kg tested) 1 hour before 100 ng hrIL-6 + 300 ng hrIL-6sR; measured 1 hour post injection
# Description: as §1, §2
# rat knee joint [3] = assay: (IL-6)-induced joint pain, hind paw weight bearing differential (Demonstration Example 1); conditions: for change in hind paw weight differential compared to the vehicle control group: male Wistar rats
# Procedure: (§3) It should be appreciated that in all of the below examples, unless indicated otherwise, male Wistar rats (175-200 g) were housed in solid bottom isolator cages, 2-4 rats per cage, with corncob bedding on a 12 hour:12 hour light:dark cycle. Animals were fed standard rat chow with water available ad libitum.
# It should be appreciated that in all of the below examples, hind paw weight bearing differentials between the paw of the limb having the control joint (in animals administered test compound vehicle only) and the paw of the limb having the contralateral test joint (in control or inducement animals administered test compound vehicle only and in treatment animals administered test compound dissolved in test compound vehicle) were determined using an incapacitance tester, model 2KG (Linton Instrumentation, Norfolk, United Kingdom). The incapacitance tester has a chamber on top with an outwardly sloping front wall that supports a rat's front limbs, and two weight sensing pads, one for each hind paw, that facilitates this determination. Each data point is the mean of three readings of 5 seconds duration. The hind paw weight bearing differentials were expressed in grams and calculated as the [sum of (the weight in grams placed on the control limb minus the weight in grams placed on the contralateral test limb for each animal in the inducement or treatment animal group)] divided by the number of animals in the inducement or treatment animal group. […] All results were statistically analyzed by comparing the average results for an induction or treatment group with the average result for its control group at the same time point using analysis of covariance (“ANCOVA”) followed by the Hochberg's procedure and those with statistical significance had ρ<0.05 unless otherwise noted.
# It should also be appreciated that the IL-6 and IL-6sR used as described in all of the below examples was the commercially available recombinant human IL-6 and recombinant human IL-6sR purchased from R&D Systems, Minneapolis, Minn.
# It should also be appreciated that prior to injection of hrIL-6, hrIL-6sR, or hrIL-6 plus hrIL-6sR in all of the below examples, rats were anesthetized with 5% volume/volume (“v/v”) isoflurane gas until knocked down and maintained with 2% v/v isoflurane. Rats became fully conscious about 5 minutes after isoflurane administration was discontinued.
# Hind-paw weight differentials between the right joint and the left joint of male Wistar rats (150 g) were determined for 30 rats with the incapacitance tester. Rats were then randomly divided into five groups of 6 rats each, a control group and four inducement groups. Rats were anesthetized with 5% v/v isoflurane gas until knocked down and maintained with 2% v/v isoflurane gas. At Time 0, each rat was injected with 50 μL of PBS into a control knee. In addition, each rat in the control group was injected with 50 μL of PBS into the contralateral test knee and each rat in each of the four inducement groups was injected with 50 μL of PBS containing 10 ng, 30 ng, 100 ng, or 300 ng, respectively, of hrIL-6. The injections were done through the patellar ligament into the knee joint space. The isoflurane gas was discontinued. At Times 1, 3, and 6 hours, pain in each rat was characterized by measuring hind paw weight bearing differentials with the incapacitance tester, and the results were statistically analyzed.
# rat knee joint [4] = assay: (IL-6)-, (IL-6sR)-, (IL-6 plus IL-6sR)- and (heat inactivated IL-6 plus IL-6sR)-induced joint pain (Demonstration Example 3); conditions: intra-articular in 50 μL PBS, 1 hour post injection
# Procedure: as §3
# It should be appreciated that in all of the below examples, hind paw weight bearing differentials between the paw of the limb having the control joint (in animals administered test compound vehicle only) and the paw of the limb having the contralateral test joint (in control or inducement animals administered test compound vehicle only and in treatment animals administered test compound dissolved in test compound vehicle) were determined using an incapacitance tester, model 2KG (Linton Instrumentation, Norfolk, United Kingdom). […] Each data point is the mean of three readings of 5 seconds duration. The hind paw weight bearing differentials were expressed in grams and calculated as the [sum of (the weight in grams placed on the control limb minus the weight in grams placed on the contralateral test limb for each animal in the inducement or treatment animal group)] divided by the number of animals in the inducement or treatment animal group. […]
molecule,measurement,setting,value
CS(=O)(=O)c1ccc(C2=C(c3ccccc3)C(=O)OC2)cc1 [rofecoxib],change in hind paw weight distribution (pain) compared to test compound vehicle alone,[1],reduced pain in a statistically significant manner
same,"percent inhibition of a change in hind paw weight distribution, compared to test compound vehicle alone",[2],inhibit pain in a statistically significant manner
hrIL-6: commercially available recombinant human IL-6 purchased from R&D Systems,change in hind paw weight differential compared to the vehicle control group,"rat knee joint [3]; 10 ng intra-articular in 50 μL PBS, 1, 3, or 6 hours post injection",did not produce a statistically significant change
same,change in hind paw weight differential compared to the vehicle control group,"rat knee joint [3]; 30 ng intra-articular in 50 μL PBS, 1 and 3 hours post injection",statistically significant change
same,change in hind paw weight differential compared to the vehicle control group,"rat knee joint [3]; 30 ng intra-articular in 50 μL PBS, 6 hours post injection",non-significant
same,change in hind paw weight differential compared to the vehicle control group,"rat knee joint [3]; 100 ng intra-articular in 50 μL PBS, 1, 3, and 6 hours post injection",statistically significant change
same,change in hind paw weight differential compared to the vehicle control group,"rat knee joint [3]; 300 ng intra-articular in 50 μL PBS, 1, 3, and 6 hours post injection",statistically significant change
same,amount that will induce pain in the joint on intra-articular injection,"rat knee joint [3]; hrIL-6 only, rat knee joint",more than 10 ng
same,induction of pain in the joint (hind paw weight distribution),rat knee joint [4]; 100 ng alone,will induce pain
B1,induction of pain in the joint (hind paw weight distribution),rat knee joint [4]; 300 ng alone,will induce pain

# Source: patent US20040241092A1, “Method for determining alleviation of pain in an animal” (priority 2003, published 2004)
